Results as given in patent publication US9539223B2, “Methods for treating bacterial infections” (Neoculi Pty Ltd., priority 2013, dated 2017).
Where two headings read alike, the source gives them in different places.

Columns and labels:
S. pneumoniae strain D39 [1] = experiment: MBC time kill studies (relative MBC at time points); type: cell-based, Streptococcus pneumoniae
From the text: MBC kill kinetics assays involved the preparation of three 96-well microtitre trays.

MRSA isolates = experiment: MBC test (CLSI), MRSA isolates; type: cell-based, Staphylococcus aureus
Experimental: (§1) There was an obvious reduction in the number of bacteria with increasing concentration, but growth was present compared with no growth for S. aureus. […] Each MBC test was performed in duplicate.

S. pneumoniae strain D39 [2] = experiment: Micro-broth dilution time kill studies; type: cell-based, Streptococcus pneumoniae
Experimental: Negative dilution controls were subtracted from the median growth value to obtain a suitable indicator of overall bacterial production. The 96-well tray was incubated at 37° C. in 5% CO2 and read every 2 hrs for the first 12 hrs followed by final reads at 24 and 48 hrs at 600 nm.

VRE isolates = experiment: MBC test (CLSI), VRE isolates; type: cell-based, Enterococcus spp.; set-up: key: M = many bacteria growing on the plate (too many to count)
Experimental: as §1

[3] = cited from earlier work
S. aureus ATCC 29213 = experiment: ATP release assay (CellTiter-Glo); type: cell-based, Staphylococcus aureus; details: at the MIC ([…] μg/ml), 30 min exposure
From the text: The CellTiter-Glo Luminescent Cell Viability Assay (Promega) was utilized to measure the leakage of ATP from bacteria. […] The negative control received 2% DMSO, which represented the final DMSO concentration in each assay. […] Results were expressed as ATP concentration released to the medium (μM).

S. aureus ATCC 49775 = experiment: Time-kill assays; type: cell-based, Staphylococcus aureus
Experimental: Bactericidal activity in macrodilution assays was identified as a 3-log10 decrease from the initial inoculum size. Bacteria were cultured overnight at 37° C. on SBA. Colonies were suspended in broth and the turbidity was adjusted to a 0.5 McFarland standard to obtain a bacterial suspension of ˜10^5-CFU/ml. Bacterial suspensions were incubated at 37° C. with shaking. Aliquots were removed at 0-, 1-, 2-, 4-, 8-, 12-, and 24-h after antimicrobial addition, diluted, plated onto SBA and incubated for 48-h at 37° C. for viable count determination. Turbidimetric growth curves for S. aureus were obtained for Microtiter plate assays by monitoring optical density changes using a Bio-Rad Benchmark Plus microplate spectrophotometer at 600 nm. Optical densities were measured at 0-, 1-, 2-, 4-, 8-, 12, and 24-h after antimicrobial addition.

N=C(N/N=C/c1ccc(Cl)cc1)N/N=C/c1ccc(Cl)cc1 [NCL812, 1,2-bis[(E)-(4-chlorophenyl)methylideneamino]guanidine]
consistent bactericidal effect elicited after (S. pneumoniae strain D39 [1]; from initial exposure, relative MBC over 48 hr): 6 h
decrease in MBC (S. pneumoniae strain D39 [1]; within 5 hrs): ~3 fold
MBC test: growth on Sheep Blood Agar (MRSA isolates; MRSA 1, 4 μg/ml): 0
MBC test: growth on Sheep Blood Agar (MRSA isolates; MRSA 1, 8 μg/ml): 0
MBC test: growth on Sheep Blood Agar (MRSA isolates; MRSA 1, 16 μg/ml): 0
MBC test: growth on Sheep Blood Agar (MRSA isolates; MRSA 1, 32 μg/ml): 0
MBC test: growth on Sheep Blood Agar (MRSA isolates; MRSA 3, 4 μg/ml): 0
MBC test: growth on Sheep Blood Agar (MRSA isolates; MRSA 3, 16 μg/ml): 0
MBC test: growth on Sheep Blood Agar (MRSA isolates; MRSA 3, 32 μg/ml): 0
MBC test: growth on Sheep Blood Agar (MRSA isolates; MRSA 4, 4 μg/ml): 0
MBC test: growth on Sheep Blood Agar (MRSA isolates; MRSA 4, 8 μg/ml): 0
MBC test: growth on Sheep Blood Agar (MRSA isolates; MRSA 4, 16 μg/ml): 0
MBC test: growth on Sheep Blood Agar (MRSA isolates; MRSA 4, 32 μg/ml): 0
MBC test: growth on Sheep Blood Agar (MRSA isolates; MRSA 5, 4 μg/ml): 0
MBC test: growth on Sheep Blood Agar (MRSA isolates; MRSA 5, 8 μg/ml): 0
MBC test: growth on Sheep Blood Agar (MRSA isolates; MRSA 5, 16 μg/ml): 0
MBC test: growth on Sheep Blood Agar (MRSA isolates; MRSA 5, 32 μg/ml): 0
MBC test: growth on Sheep Blood Agar (MRSA isolates; MRSA 6, 4 μg/ml): 0
MBC test: growth on Sheep Blood Agar (MRSA isolates; MRSA 6, 8 μg/ml): 0
MBC test: growth on Sheep Blood Agar (MRSA isolates; MRSA 6, 16 μg/ml): 0
MBC test: growth on Sheep Blood Agar (MRSA isolates; MRSA 6, 32 μg/ml): 0
MBC test: growth on Sheep Blood Agar (MRSA isolates; MRSA 7, 4 μg/ml): 0
MBC test: growth on Sheep Blood Agar (MRSA isolates; MRSA 7, 16 μg/ml): 0
MBC test: growth on Sheep Blood Agar (MRSA isolates; MRSA 7, 32 μg/ml): 0
MBC test: growth on Sheep Blood Agar (MRSA isolates; MRSA 8, 8 μg/ml): 0
MBC test: growth on Sheep Blood Agar (MRSA isolates; MRSA 8, 16 μg/ml): 0
MBC test: growth on Sheep Blood Agar (MRSA isolates; MRSA 8, 32 μg/ml): 0
MBC test: growth on Sheep Blood Agar (MRSA isolates; MRSA 9, 4 μg/ml): 0
MBC test: growth on Sheep Blood Agar (MRSA isolates; MRSA 9, 8 μg/ml): 0
MBC test: growth on Sheep Blood Agar (MRSA isolates; MRSA 9, 16 μg/ml): 0
MBC test: growth on Sheep Blood Agar (MRSA isolates; MRSA 9, 32 μg/ml): 0
MBC test: growth on Sheep Blood Agar (MRSA isolates; MRSA 10, 4 μg/ml): 0
MBC test: growth on Sheep Blood Agar (MRSA isolates; MRSA 10, 8 μg/ml): 0
MBC test: growth on Sheep Blood Agar (MRSA isolates; MRSA 10, 16 μg/ml): 0
MBC test: growth on Sheep Blood Agar (MRSA isolates; MRSA 10, 32 μg/ml): 0
MBC test: growth on Sheep Blood Agar (MRSA isolates; MRSA 11, 8 μg/ml): 0
MBC test: growth on Sheep Blood Agar (MRSA isolates; MRSA 11, 16 μg/ml): 0
MBC test: growth on Sheep Blood Agar (MRSA isolates; MRSA 11, 32 μg/ml): 0
MBC test: growth on Sheep Blood Agar (MRSA isolates; MRSA 12, 4 μg/ml): 0
MBC test: growth on Sheep Blood Agar (MRSA isolates; MRSA 12, 16 μg/ml): 0
MBC test: growth on Sheep Blood Agar (MRSA isolates; MRSA 12, 32 μg/ml): 0
MBC test: growth on Sheep Blood Agar (MRSA isolates; MRSA 13, 4 μg/ml): 0
MBC test: growth on Sheep Blood Agar (MRSA isolates; MRSA 13, 8 μg/ml): 0
MBC test: growth on Sheep Blood Agar (MRSA isolates; MRSA 13, 16 μg/ml): 0
MBC test: growth on Sheep Blood Agar (MRSA isolates; MRSA 13, 32 μg/ml): 0
MBC test: growth on Sheep Blood Agar (MRSA isolates; MRSA 14, 4 μg/ml): 0
MBC test: growth on Sheep Blood Agar (MRSA isolates; MRSA 14, 8 μg/ml): 0
MBC test: growth on Sheep Blood Agar (MRSA isolates; MRSA 14, 16 μg/ml): 0
MBC test: growth on Sheep Blood Agar (MRSA isolates; MRSA 14, 32 μg/ml): 0
MBC test: growth on Sheep Blood Agar (MRSA isolates; MRSA 516, 4 μg/ml): 0
MBC test: growth on Sheep Blood Agar (MRSA isolates; MRSA 516, 8 μg/ml): 0
MBC test: growth on Sheep Blood Agar (MRSA isolates; MRSA 516, 16 μg/ml): 0
MBC test: growth on Sheep Blood Agar (MRSA isolates; MRSA 516, 32 μg/ml): 0
MBC test: growth on Sheep Blood Agar (MRSA isolates; MRSA 570, 4 μg/ml): 0
MBC test: growth on Sheep Blood Agar (MRSA isolates; MRSA 570, 8 μg/ml): 0
MBC test: growth on Sheep Blood Agar (MRSA isolates; MRSA 570, 16 μg/ml): 0
MBC test: growth on Sheep Blood Agar (MRSA isolates; MRSA 570, 32 μg/ml): 0
MBC test: growth on Sheep Blood Agar (MRSA isolates; MRSA 580, 4 μg/ml): 0
MBC test: growth on Sheep Blood Agar (MRSA isolates; MRSA 580, 8 μg/ml): 0
MBC test: growth on Sheep Blood Agar (MRSA isolates; MRSA 580, 16 μg/ml): 0
MBC test: growth on Sheep Blood Agar (MRSA isolates; MRSA 580, 32 μg/ml): 0
MBC test: growth on Sheep Blood Agar (MRSA isolates; MRSA 606, 4 μg/ml): 0
MBC test: growth on Sheep Blood Agar (MRSA isolates; MRSA 606, 8 μg/ml): 0
MBC test: growth on Sheep Blood Agar (MRSA isolates; MRSA 606, 16 μg/ml): 0
MBC test: growth on Sheep Blood Agar (MRSA isolates; MRSA 606, 32 μg/ml): 0
MBC test: growth on Sheep Blood Agar (MRSA isolates; MRSA 610, 4 μg/ml): 0
MBC test: growth on Sheep Blood Agar (MRSA isolates; MRSA 610, 16 μg/ml): 0
MBC test: growth on Sheep Blood Agar (MRSA isolates; MRSA 610, 32 μg/ml): 0
effect of choline chloride in the media on growth (S. pneumoniae strain D39 [2]; 5% choline chloride, 48 hour, compared to positive and growth controls): no significant difference in growth
concentrations resulting in no bacterial growth for 48 hrs (S. pneumoniae strain D39 [2]; D39): ≥ 16 µg/mL
sub-inhibitory concentrations (growth similar to unexposed controls over 48 hour) (S. pneumoniae strain D39 [2]; D39): ≤ 2 µg/mL
entered a log phase of growth at (S. pneumoniae strain D39 [2]; D39 treated with ≦4 μg/ml NCL812): 6 hrs
MBC test: bacteria growing after 24 hours per ml of sample (VRE isolates; VRE 12c, 64 μg/ml): M
MBC test: bacteria growing after 24 hours per ml of sample (VRE isolates; VRE 12c, […]): M
MBC test: bacteria growing after 24 hours per ml of sample (VRE isolates; VRE 14t, […]): M
MBC test: bacteria growing after 24 hours per ml of sample (VRE isolates; VRE 16c(dc), 64 μg/ml): M
MBC test: bacteria growing after 24 hours per ml of sample (VRE isolates; VRE 16c(dc), […]): M
MBC test: bacteria growing after 24 hours per ml of sample (VRE isolates; VRE 16c, 64 μg/ml): M
MBC test: bacteria growing after 24 hours per ml of sample (VRE isolates; VRE 16c, […]): M
MBC test: bacteria growing after 24 hours per ml of sample (VRE isolates; VRE 19t, […]): M
MBC test: bacteria growing after 24 hours per ml of sample (VRE isolates; VRE 23c, 64 μg/ml): M
MBC test: bacteria growing after 24 hours per ml of sample (VRE isolates; VRE 23c, […]): M
MBC test: bacteria growing after 24 hours per ml of sample (VRE isolates; VRE 25c, 64 μg/ml): M
MBC test: bacteria growing after 24 hours per ml of sample (VRE isolates; VRE 25c, […]): M
MBC test: bacteria growing after 24 hours per ml of sample (VRE isolates; VRE 26c(dc), 64 μg/ml): M
MBC test: bacteria growing after 24 hours per ml of sample (VRE isolates; VRE 26c(dc), […]): M
solubility ([3]; PBS): precipitation
solubility ([3]; water containing 4% DMSO, following initial dilution in 100% DMSO): complete solubility
maximal release of ATP (S. aureus ATCC 29213): 0.33 µM
growth in microdilution assay (S. aureus ATCC 49775; 1× and 4× the MIC, up to 24-h): no visible bacterial growth
remained bactericidal until (S. aureus ATCC 49775; 10-ml macrodilution, 1× and 4× the MIC, after antimicrobial addition): 8 to 12 h
bacterial regrowth observed at (S. aureus ATCC 49775; after antimicrobial addition): 12 h
susceptibility of test bacteria after time-kill exposure (S. aureus ATCC 49775; following harvesting, washing and MIC testing): remained susceptible
